Assay results published in patent US20240417406A1, “NITROGEN-CONTAINING TRICYCLIC COMPOUND AND PHARMACEUTICAL USE THEREOF” (JAPAN TOBACCO INC., priority 2021, published 2024).

The compounds below were run against human PDHK2 (hPDHK2) (Homo sapiens (Human), UniProt Q15119) (assay: Inhibitory action of PDHK2 activity (PDH/hPDHK2 complex, residual PDH activity by NADH absorbance at 340 nm)). Details: FLAG-tagged recombinant hPDHK2 with porcine heart PDH complex; PDHK reaction 45 min at room temperature.
Type: biochemical
Experimental: In the case of human PDHK2 (hPDHK2, NCBI Reference Database Accession number NM_002611.4), modified hPDHK2 cDNA wherein FLAG-Tag sequence was added to the N terminal of hPDHK2 cDNA clone (pReceiver-M01/PDK2-GeneCopoeia) as the base was prepared by polymerase chain reaction (PCR) and ligated to the NdeI/EcoRI site of pET-17b vector (Merck KGaA, Catalog Number 69663-3). The recombinant construct was transformed into Escherichia coli DH5a. The recombinant clones were identified, and plasmid DNA was isolated and subjected to the DNA sequence analysis. One clone which had the expected nucleic acid sequence was selected for expression work.
For expression of hPDHK2 activity, Escherichia coli strain BL21(DE3) cells (Merck KGaA, Catalog Number 69450-4) were transformed with the pET17b vector containing modified hPDHK2 cDNA. The Escherichia coli were grown to an optical density 0.6 ([…]) at 30° C. Protein expression was induced by the addition of 500 μmol/L isopropyl-β-thiogalactopyranoside. The Escherichia coli were cultured at 20° C. for 17 to for 18 hr and harvested by centrifugation. The harvested Escherichia coli was resuspended in a suspension buffer (20 mmol/L HEPES-NaOH, 500 mmol/L sodium chloride, 1% ethylene glycol, 0.1% Pluronic (registered trademark) F-68 (pH 8.0), cOmplete, EDTA-free (Roche) (pH 8.0)), and disrupted by a microfluidizer M-110H (MIZUHO INDUSTRIAL CO., LTD.). The precipitate was removed by centrifugation and the supernatant was added to DDDDK-tagged Protein PURIFICATION GEL (MEDICAL & BIOLOGICAL LABORATORIES CO., LTD., Code No. 3329). DDDDK-tagged Protein PURIFICATION GEL was washed with a washing buffer (20 mmol/L HEPES-NaOH, 500 mmol/L sodium chloride, 1% ethylene glycol, 0.1% Pluronic F-68 (pH 8.0)) and the bound protein was eluted with elution buffer 1 (20 mmol/L HEPES-NaOH, 100 μg/mL peptide (amino acid sequence DYKDDDDK) (SEQ ID NO: 1), 500 mmol/L sodium chloride, 1% ethylene glycol, 0.1% Pluronic F-68 (pH 8.0)). The eluted fractions containing FLAG-Tagged protein were pooled, concentrated by an ultrafiltration method, added to a gel filtration column (HiLoad 26/60 Superdex 200 (GE Healthcare Life Sciences, Code No. 17-1070-01)), and eluted with elution buffer 2 (20 mmol/L HEPES-NaOH, 150 mmol/L sodium chloride, 0.5 mmol/L ethylenediaminetetraacetic acid (EDTA), 1% ethylene glycol, 0.1% Pluronic F-68 (pH 8.0)). The eluted fractions were pooled and preserved at −80° C.
PDH (porcine heart PDH complex, Sigma P7032) and 0.5 μg/mL hPDHK2 were mixed in an assay buffer (50 mmol/L 3-morpholinopropanesulfonic acid (pH 7.0), 20 mmol/L dipotassium hydrogen phosphate, 60 mmol/L potassium chloride, 2 mmol/L magnesium chloride, 0.4 mmol/L EDTA, 0.2% poloxamer, 2 mmol/L dithiothreitol) so that the final concentration of PDH was 0.025 U/mL, and the mixture was incubated at 4° C. overnight to obtain a PDH/hPDHK2 complex solution.
PDH was mixed with the assay buffer so that the final concentration was 0.025 U/mL, and the mixture was incubated at 4° C. overnight to prepare a PDH solution.
The test compounds were diluted with DMSO. […] DMSO (1.5 μL) was added to control wells instead of test compound. In addition, DMSO (1.5 μL) was added to blank wells instead of the test compound, and PDH solution was added instead of the PDH/hPDHK2 complex solution. To measure an inhibitory action of the test compound on the PDHK activity inherent in the PDH solution, a test compound was added and the PDH solution instead of the PDH/hPDHK2 complex solution was added to a blank+test compound well.
Then, 10 μL of substrates (5 mmol/L sodium pyruvate, 5 mmol/L Coenzyme A, 12 mmol/L NAD, 5 mmol/L thiamine pyrophosphate, diluted with assay buffer) were added. The mixture was incubated at room temperature for 90 min, and the residual PDH activity was measured.
The absorbance of each well at 340 nm was measured using a microplate reader to detect NADH produced by the PDH reaction. […]

Row | SMILES | IC50 [nM]
1 | C[C@H]1Cc2c(cnn2-c2ccccc2)-c2cnc(C(C)(O)C(F)(F)F)n21 (stereo in doubt) [Example 73, (S)-1,1,1-trifluoro-2-((S)-5-methyl-3-phenyl-4,5-dihydro-3H-imidazo[1,5-a]pyrazolo[4,3-c]pyridin-7-yl)propan-2-ol] | 15.7
2 | C[C@H]1Cn2nc(OC(F)F)cc2-c2onc([C@@](C)(O)C(F)(F)F)c21 (racemic) [Example 45] | 26.4
3 | C[C@H]1Cc2nn(C3CC(C#N)C3)cc2-c2onc([C@@](C)(O)C(F)(F)F)c21 (stereo in doubt) [Example 27] | 31.5
4 | C[C@H]1Cn2nc(C34CCC(CO)(CC3)OC4)cc2-c2cnc([C@@](C)(O)C(F)(F)F)n21 [Example 85] | 16.6
5 | C[C@H]1Cn2nc(C34CCC(C#N)(CC3)CC4)cc2-c2cnnc([C@@](C)(O)C(F)(F)F)c21 (racemic) [Example 103, 4-[(R)-5-methyl-4-((R)-1,1,1-trifluoro-2-hydroxypropan-2-yl)-5,6-dihydropyrazolo[1′,5′:1,2]pyrido[3,4-d]pyridazin-9-yl]bicyclo[2.2.2]octane-1-carbonitrile and 4-[(S)-5-methyl-4-((S)-1,1,1-trifluoro-2-hydroxypropan-2-yl)-5,6-dihydropyrazolo[1′,5′:1,2]pyrido[3,4-d]pyridazin-9-yl]bicyclo[2.2.2]octane-1-carbonitrile] | 24.3
6 | C[C@H]1Cc2nn([C@H]3CC[C@](C)(O)CC3)cc2-c2onc([C@@](C)(O)C(F)(F)F)c21 [Example 105, (1S,4r)-1-methyl-4-((S)-4-methyl-3-((R)-1,1,1-trifluoro-2-hydroxypropan-2-yl)-4,5-dihydro-7H-isoxazolo[5,4-e]indazol-7-yl)cyclohexan-1-ol] | 10
7 | C[C@H]1Cc2c(cnn2C2CC2)-c2onc([C@@](C)(O)C(F)(F)F)c21 (racemic) [Example 18] | 12.5
8 | C[C@H]1Cn2nccc2-c2onc([C@@](C)(O)C(F)(F)F)c21 (racemic) [Example 17] | 21.3
9 | C[C@H]1Cn2nc(OCC3(C#N)CC3)cc2-c2onc([C@@](C)(O)C(F)(F)F)c21 [Example 33] | 8.7
10 | C[C@H]1Cc2nn(C(F)F)cc2-c2onc([C@@](C)(O)C(F)(F)F)c21 (racemic) [Example 22] | 22.4
11 | C[C@H]1Cn2nc(C34CCC(CO)(C3)C4)cc2-c2cnc([C@@](C)(O)C(F)(F)F)n21 [Example 92] | 31.9
12 | C[C@@H]1Cc2nn(CC#N)cc2-c2onc([C@](C)(O)C(F)(F)F)c21 [Example 49] | 19.5
13 | C[C@H]1Cc2c(cnn2[C@H]2C[C@@](C)(C#N)C2)-c2onc([C@@](C)(O)C(F)(F)F)c21 (racemic) [Example 57, (1R,3s)-1-methyl-3-((S)-4-methyl-3-((R)-1,1,1-trifluoro-2-hydroxypropan-2-yl)-4,5-dihydro-6H-isoxazolo[5,4-e]indazol-6-yl)cyclobutane-1-carbonitrile and enantiomer thereof] | 28.5
14 | C[C@H]1Cc2nn([C@H]3C[C@](C)(C#N)C3)cc2-c2onc([C@@](C)(O)C(F)(F)F)c21 (racemic) [Example 54, (1S,3r)-1-methyl-3-((S)-4-methyl-3-((R)-1,1,1-trifluoro-2-hydroxypropan-2-yl)-4,5-dihydro-7H-isoxazolo[5,4-e]indazol-7-yl)cyclobutane-1-carbonitrile and enantiomer thereof] | 7.2
15 | C[C@H]1Cn2nc(C34CC(C(C)(C)O)(C3)C4)cc2-c2cnc([C@@](C)(O)C(F)(F)F)n21 [Example 76] | 14.5
16 | C[C@H]1Cn2c(-c3ccc(F)cc3)nnc2-c2onc([C@@](C)(O)C(F)(F)F)c21 [Example 7] | 9.2
17 | C[C@H]1Cc2c(cnn2[C@H]2C[C@](C)(C#N)C2)-c2onc([C@@](C)(O)C(F)(F)F)c21 (racemic) [Example 53, (1S,3r)-1-methyl-3-((S)-4-methyl-3-((R)-1,1,1-trifluoro-2-hydroxypropan-2-yl)-4,5-dihydro-6H-isoxazolo[5,4-e]indazol-6-yl)cyclobutane-1-carbonitrile and enantiomer thereof] | 8.8
18 | C[C@H]1Cc2c(cnn2C2CC(C#N)C2)-c2onc([C@@](C)(O)C(F)(F)F)c21 (stereo in doubt) [Example 26] | 18.2
19 | C[C@H]1Cn2nc(OCCC(C)(C)O)cc2-c2onc([C@@](C)(O)C(F)(F)F)c21 (racemic) [Example 34] | 14.7
20 | C[C@H]1Cn2c(nnc2C(C)(C)F)-c2onc([C@@](C)(O)C(F)(F)F)c21 [Example 4] | 10.9
21 | C[C@H]1Cn2nc(OCC34CCC(C#N)(CC3)C4)cc2-c2cnc([C@@](C)(O)C(F)(F)F)n21 [Example 90] | 30.5
22 | C[C@H]1Cn2c(nnc2C(C)(F)F)-c2onc([C@@](C)(O)C(F)(F)F)c21 [Example 3] | 20.4
23 | C[C@H]1Cn2nc(OCC34CC(C#N)(C3)C4)cc2-c2cnc([C@@](C)(O)C(F)(F)F)n21 [Example 97, 3-((((S)-5-methyl-3-((R)-1,1,1-trifluoro-2-hydroxypropan-2-yl)-5,6-dihydroimidazo[1,5-a]pyrazolo[5,1-c]pyrazin-9-yl)oxy)methyl)bicyclo[1.1.1]pentane-1-carbonitrile] | 8.8
24 | C[C@H]1Cn2c(nnc2C23CC(C(C)(C)O)(C2)C3)-c2onc([C@@](C)(O)C(F)(F)F)c21 [Example 13] | 7.5
25 | C[C@H]1Cn2nc(C34CC(C#N)(C3)C4)cc2-c2cnc([C@@](C)(O)C(F)(F)F)n21 [Example 72] | 12.3
26 | C[C@H]1Cn2nc(OCF)cc2-c2onc([C@@](C)(O)C(F)(F)F)c21 (racemic) [Example 44] | 18.3
27 | C[C@H]1Cn2nc(C34CC(C#N)(C3)C4)cc2-c2cnnc([C@@](C)(O)C(F)(F)F)c21 (racemic) [Example 104, 3-[(R)-5-methyl-4-((R)-1,1,1-trifluoro-2-hydroxypropan-2-yl)-5,6-dihydropyrazolo[1′,5′:1,2]pyrido[3,4-d]pyridazin-9-yl]bicyclo[1.1.1]pentane-1-carbonitrile and 3-[(S)-5-methyl-4-((S)-1,1,1-trifluoro-2-hydroxypropan-2-yl)-5,6-dihydropyrazolo[1′,5′:1,2]pyrido[3,4-d]pyridazin-9-yl]bicyclo[1.1.1]pentane-1-carbonitrile] | 36.9
28 | C[C@H]1Cn2nc(C(F)(F)F)cc2-c2cnnc([C@@](C)(O)C(F)(F)F)c21 (racemic) [Example 99, mixture of (R)-1,1,1-trifluoro-2-((R)-5-methyl-9-(trifluoromethyl)-5,6-dihydropyrazolo[1′,5′:1,2]pyrido[3,4-d]pyridazin-4-yl)propan-2-ol and (S)-1,1,1-trifluoro-2-((S)-5-methyl-9-(trifluoromethyl)-5,6-dihydropyrazolo[1′,5′:1,2]pyrido[3,4-d]pyridazin-4-yl)propan-2-ol] | 23.4
29 | C[C@H]1Cn2nc(O[C@H]3C[C@](C)(C#N)C3)cc2-c2onc([C@@](C)(O)C(F)(F)F)c21 [Example 63, (1R,3r)-1-methyl-3-(((R)-4-methyl-3-((R)-1,1,1-trifluoro-2-hydroxypropan-2-yl)-4,5-dihydroisoxazolo[5,4-c]pyrazolo[1,5-a]pyridin-8-yl)oxy)cyclobutane-1-carbonitrile] | 9.1
